From patent US12691114B2, “Compositions for inhibition of herpesviruses” (The Medical College of Wisconsin, Inc., priority 2020, dated 2026) come the findings set out here.

One data set deals with non-infected HFFs. The experiment in a line: in vitro. As to the method:
(§1) Cytotoxicity assay: MTT assay was performed as described by manufacturer's instructions (Sigma-Aldrich). Non-infected cells were treated with compounds for 72 h or 10 days (same time points of the antiviral assay), and 20 μL/well of MTT [3-(4, 5-Dimethyl-2-thiazolyl)-2, 5-diphenyl-2H-tetrazolium bromide], 5 mg/mL in phosphate buffered saline (PBS)] was added to each well. After shaking at 150 rpm for 5 min the plates were incubated at 37° C. for 2-3 h. Conversion of yellow solution to dark blue formazan by mitochondrial dehydrogenases of living cells was quantified by measuring absorbance at 560 nm.
(§2) HCMV inhibition was measured by luciferase activity of pp28-recombinant Towne and pp28 GCV-resistant Towne strains of HCMV (72 hpi) and by plaque reduction using HCMV Towne or TB40 (10 days). Viral protein expression was measured by Western blot.

A short description of the next data set: in vitro. Particulars: human. The protocol: as §1, §2
Another data set relates to HSV2 clinical isolate. The experiment in a line: Plaque reduction assay, HSV2 in Vero cells. It counts as cell-based, Human Herpesvirus 2. Conditions: plaque reduction. The text has this: Viruses and antiviral assays: A recombinant pp28-luciferase Towne HCMV strain expressing luciferase under the control of the UL99 (pp28) late promoter was reported to provide a highly-sensitive and reproducible reporter for drug screening^20. A GCV-resistant HCMV pp28-luciferase that contains a C607Y mutation in UL97 was reported^37. The HCMV TB40 strain was obtained from ATCC (VR-1578). Clinical isolates of Human Herpesvirus 1 and 2 (HSV1, HSV2) were collected from the Johns Hopkins Microbiology laboratory without identifiers that could link them to a specific patient. Mouse CMV (MCMV) Smith strain (ATCC VR-1399) was used for infection of MEFs.
Plaque reduction assay: HFFs were seeded into 12-well plates (2×10^5 cells/well) and infected with HCMV TB40 at approximately 100 plaques/well. After 90 min, media were aspirated, and DMEM containing 0.5% carboxymethyl-cellulose (CMC), 4% fetal bovine serum (FBS), and drugs were added into duplicate wells. Following incubation at 37° C. for 10-12 days the overlay was removed, and plaques were counted after crystal violet staining. For HSV1 and HSV2 replication in Vero cells, the adsorption time was 60 min and plaques were counted after 36 h. Plaque assays in MEFs were completed after 3 days.
Inhibition of other herpesviruses: Inhibition of herpes simplex 1 and 2 (HSV1, HSV2), Epstein Barr virus (EBV) and mouse CMV (MCMV) was tested with the five compounds. Plaque reductions assays were used for HSV1, HSV2 and MCMV. Inhibition of lytic EBV replication was measured by real-time PCR in AKATA cells following IgG induction. Only MLS8554 was active against HSV1, HSV2 and MCMV (Table 2).
(In general: In a plaque reduction assay, fewer plaques than in the control indicate reduced infectivity or spread.)

Another data set has as its system HCMV. The experiment in a line: Drug combination of GCV and 2955 by plaque assay, Bliss model. It counts as cell-based, human cytomegalovirus. Particulars: Human betaherpesvirus 5; combination experiment with GCV, plaque assay; read-out: EC50 (μM) of Compound 2. As to the method:
Drug combination and analysis: These experiments were performed as previously reported^40. The combination of GCV and each compound was tested using the pp28-luciferase. Briefly, 2×10^6 HFFs/plate were seeded in 96-well plates and infected with the pp28-luciferase Towne HCMV strain (MOI=1). First, a dose response curve was generated for each drug individually to determine its EC50. Then, drugs were combined at twice their EC50, diluted in DMEM with 4% FBS, followed by serial dilution and added together after infection. Luciferase activity of the combination and each drug individually was quantified at 72 hpi. The combination of letermovir and each of the new compounds was tested by the plaque assay using TB40. The same principle applied in this assay for the drug combination effect, and plaques were counted at 8 dpi. The Bliss model was used to calculate the effect of each drug combination on pp28-luciferase activity and plaque reduction. […]
Pattern of drug combination with GCV and letermovir: The effect of each compound alone or in combination with GCV or letermovir was tested in HCMV-infected HFFs. […] For letermovir and its combination with each of the five compounds the EC50 was determined based on plaque assay. […] All other combinations and Bliss coefficients were measured by pp28- luciferase.

Another data set has as its system MEFs. The experiment in a line: Toxicity to MEFs. It is filed as cell-based, mouse.
For a further data set, the system named is GCV-resistant HCMV Towne. The experiment in a line: Plaque reduction assay, GCV-resistant HCMV Towne in HFFs. It counts as cell-based, human cytomegalovirus. Particulars: Human betaherpesvirus 5, read-out: EC50—GCVR Towne (μM).

Turning to `Nc1c(S(=O)(=O)c2cccs2)c2nc3ccccc3nc2n1Cc1ccccc1` [MLS8091], the CC50 with non-infected HFFs is over 250 µM.

Molecule `CCN1CCN(CCCNC(=O)c2ccc3c(c2)sc2nc(-c4ccc(OC)cc4)cn23)CC1` [NFU1827, N-[3-(4-ethylpiperazin-1-yl)propyl]-4-(4-methoxyphenyl)-7-thia-2,5-diazatricyclo [6.4.0.02,6] dodeca-1(8),3,5,9,11-pentaene-10-carboxamide] returned a CC50 in the data set “in vitro” of 70.9 µM.

Usually EC50 stands for the midpoint of the concentration-response curve. `CCc1ccc(NC(=O)[C@H](Cc2c[nH]c3ccccc23)NC(=O)[C@@H]2Cc3ccccc3CN2)cc1` [MLS8554]: the “activity against HSV2, in words” value in the data set with HSV2 clinical isolate is “active”. Besides, the EC50 with HSV2 clinical isolate (Vero cells, NA = Not active, read-out: EC50—HSV2-C1) worked out at 1.3 ± 0.1 µM. In the data set on non-infected HFFs, this molecule returned a CC50 of 86 µM.

For `CC(C)NC(=O)C1CCN(C(=O)c2cc3sccc3n2Cc2ccc(Cl)cc2)CC1` [NCGC2955, 1-(4-(4-chlorobenzyl)-4H-thieno[3,2-b]pyrrole-5-carbonyl)-N-isopropylpiperidine-4-carboxamide], the results for the concentration for a half-maximal effect (EC50) in the data set with HCMV and in the data set on GCV-resistant HCMV Towne were 1.51 ± 0.03 µM and 1.4 ± 0.2 µM, respectively. Besides, the “concentration at which toxicity to MEFs was observed” value in the data set with MEFs is at least 10 µM. In “in vitro”, this molecule gave a CC50 of over 200 µM.
